The values that follow come from patent US10004718B2, “Erythropoietin expression promoter” (TOHOKU UNIVERSITY, priority 2012, dated 2018).

The test system of this assay is MCA (middle cerebral artery) occlusion mouse models. Kind of assay: Cerebral ischemic injury, MCA occlusion mouse model (TTC staining). The conditions noted are these: 40 mg/kg intraperitoneal 4 hours before ischemia, 24 hours after reperfusion, vs DMSO, n=1. In kind it is in vivo. The procedure: Two types of compounds (compounds #4 and 35) (40 mg/kg of mouse body weight) were each intraperitoneally administered to a mouse 4 hours before ischemia (n=1). A vehicle (DMSO) was administered to a control (n=1). Anesthesia was induced in each mouse with 4% halothane and oxygen and maintained by the intraperitoneal administration of ketamine (40 mg/kg) and xylazine (4 mg/kg) at 30-minute intervals. After the induction of systemic anesthesia, bifurcation of the common carotid artery was exposed under a microscope. A 6-0 nylon thread having a silicon-coated tip was inserted from the internal carotid artery toward the central side so that its tip reached the anterior communicating artery. The common carotid artery was further ligated to block blood flow into the middle cerebral artery. After the ischemic burden for 30 minutes, the nylon thread was removed so that the ligated common carotid artery was released to induce reperfusion.
24 hours after the reperfusion, each mouse was cervically dislocated and then decapitated to excise the brain. Five coronal sections of the cerebrum having a thickness of 2 mm were prepared from the boundary between the cerebrum and the cerebellum. The coronal sections of the cerebrum were stained with TCC through a reaction at 37° C. for 20 minutes with a TTC solution diluted to 1.5% with PBS. […]

Structures are written as SMILES.

As to `O=C(CC(C(=O)O)c1c[nH]c2ccccc12)c1ccc(F)cc1` (stereo not shown) [compound #4, 4-(4-Fluorophenyl)-2-(1H-indol-3-yl)-4-oxo-butanoic acid], the “volume of the cerebral infarction site” value was “decreased”.
